This is an account of results in ChEMBL document CHEMBL1143583, “Anchor-GRIND: filling the gap between standard 3D QSAR and the GRid-INdependent descriptors” (J Med Chem, 2005).

Acetylcholinesterase, sequence (P22303 whole entry): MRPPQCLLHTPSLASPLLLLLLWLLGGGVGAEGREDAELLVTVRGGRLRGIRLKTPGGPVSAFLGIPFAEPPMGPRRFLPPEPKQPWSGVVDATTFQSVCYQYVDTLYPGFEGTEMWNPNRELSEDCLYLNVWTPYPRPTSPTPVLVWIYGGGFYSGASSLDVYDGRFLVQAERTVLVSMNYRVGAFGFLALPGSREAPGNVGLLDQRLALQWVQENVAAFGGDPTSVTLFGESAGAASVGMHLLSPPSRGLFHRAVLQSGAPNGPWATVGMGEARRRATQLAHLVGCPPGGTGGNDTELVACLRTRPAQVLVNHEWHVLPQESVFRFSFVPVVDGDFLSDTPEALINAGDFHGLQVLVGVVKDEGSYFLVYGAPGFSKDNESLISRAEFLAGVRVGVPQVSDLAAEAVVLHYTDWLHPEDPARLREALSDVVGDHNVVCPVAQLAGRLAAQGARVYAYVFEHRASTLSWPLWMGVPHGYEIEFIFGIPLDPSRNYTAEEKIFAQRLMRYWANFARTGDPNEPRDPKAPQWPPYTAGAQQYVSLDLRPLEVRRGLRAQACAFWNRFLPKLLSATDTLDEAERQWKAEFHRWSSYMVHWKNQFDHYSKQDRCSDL

The first experiment concerns the target Acetylcholinesterase (Homo sapiens, UniProt P22303). Put plainly: Inhibitory concentration against Acetylcholinesterase; (range = 2-20 uM).
Settings: not given
`O=C1CN(CCN2CCOCC2)C(=O)CN1CCC(c1ccccc1)c1ccccc1` showed an IC50 of 20 µM.

In the case of `COc1ccc(CCN2CC(=O)N(CCc3ccccn3)CC2=O)cc1OC`, the IC50 is 20 µM.

Turning to `O=C1CN(CCN2CCCC2)C(=O)CN1CCCn1ccnc1`, the IC50 came to 20 µM.

With `CCN(CC)CCN1CC(=O)N(CCc2ccccc2)CC1=O`, the IC50 amounted to 20 µM.

`CCN(CC)CCCN1CC(=O)N(C2CC2)CC1=O` displayed an IC50 of 20 µM.

In turn, `CC(C)N(CCN1CC(=O)N(CCc2ccc(Cl)cc2Cl)CC1=O)C(C)C` had an IC50 of 20 µM.

As to `CC1CCCCN1CCCN1CC(=O)N(CCc2ccc(F)cc2)CC1=O` (stereo not given), the IC50 was determined as 20 µM.

The next experiment deals with Genome polyprotein (Hepatitis C virus genotype 1a (isolate 1) (HCV), UniProt P26664). The experiment can be described thus: Inhibitory concentration against hepatitis C virus NS3 protease (IC50 spans 2.5 log units). Set-up: species or system Hepacivirus hominis. The conditions noted are these: read-out: Log 1/IC50 (converted).
Genome polyprotein, sequence (P26664 1027-1657 limits assumed): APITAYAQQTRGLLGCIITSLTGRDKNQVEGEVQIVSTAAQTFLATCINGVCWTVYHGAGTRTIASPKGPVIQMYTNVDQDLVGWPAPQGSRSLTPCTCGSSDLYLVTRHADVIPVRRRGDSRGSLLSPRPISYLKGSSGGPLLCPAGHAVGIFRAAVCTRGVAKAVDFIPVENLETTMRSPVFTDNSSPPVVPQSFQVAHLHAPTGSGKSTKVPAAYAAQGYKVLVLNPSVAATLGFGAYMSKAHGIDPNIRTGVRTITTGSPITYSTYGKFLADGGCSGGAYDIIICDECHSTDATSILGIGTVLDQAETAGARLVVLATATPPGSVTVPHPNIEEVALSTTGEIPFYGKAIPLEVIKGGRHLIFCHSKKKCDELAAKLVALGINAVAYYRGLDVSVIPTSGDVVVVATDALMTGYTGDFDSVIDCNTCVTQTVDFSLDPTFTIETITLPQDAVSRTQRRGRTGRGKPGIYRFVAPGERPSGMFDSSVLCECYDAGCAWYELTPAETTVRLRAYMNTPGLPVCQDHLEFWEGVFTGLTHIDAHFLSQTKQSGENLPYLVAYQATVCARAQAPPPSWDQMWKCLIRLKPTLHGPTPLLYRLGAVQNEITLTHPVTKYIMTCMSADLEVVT
For `COc1ccc2nccc(O[C@H]3CC(C(=O)[C@@H](NC(=O)[C@@H](NC(C)=O)C4CCCCC4)C(C)C)[C@H](C(=O)CC4(C(=O)O)CC4)C3)c2c1` (stereo not given in full), the IC50 is 15.8 µM.

As for `CC(=O)N[C@H](C(=O)N[C@H](C(=O)C1C[C@H](Oc2ccccc2)C[C@H]1C(=O)CC1(C(=O)O)CC1)C(C)C)C1CCCCC1` (stereo not given in full), the IC50 is 79.4 µM.

Turning to `CC(=O)N[C@H](C(=O)N[C@H](C(=O)C1C[C@H](Oc2ccc(-c3ccccc3)cc2)C[C@H]1C(=O)CC1(C(=O)O)CC1)C(C)C)C1CCCCC1` (stereo not given in full), the IC50 was 31.6 µM.

Regarding `CC(=O)N[C@H](C(=O)N[C@H](C(=O)C1C[C@H](Oc2ccnc3cc(Cl)ccc23)C[C@H]1C(=O)CC1(C(=O)O)CC1)C(C)C)C1CCCCC1` (stereo not given in full), the IC50 is 2 µM.

In the case of `CC(=O)N[C@H](C(=O)N[C@H](C(=O)C1C[C@H](Oc2nccc3ccccc23)C[C@H]1C(=O)CC1(C(=O)O)CC1)C(C)C)C1CCCCC1` (stereo not given in full), the IC50 was 7.94 µM.

Consider `CC(=O)N[C@H](C(=O)N[C@H](C(=O)C1C[C@H](Oc2cncc3ccccc23)C[C@H]1C(=O)CC1(C(=O)O)CC1)C(C)C)C1CCCCC1` (stereo not given in full), for which the IC50 was 3.98 µM.

In the case of `CC(=O)N[C@H](C(=O)N[C@H](C(=O)C1C[C@H](Oc2ccc(Cl)cc2)C[C@H]1C(=O)CC1(C(=O)O)CC1)C(C)C)C1CCCCC1` (stereo not given in full), the IC50 is 50.1 µM.

Take `CC(=O)N[C@H](C(=O)N[C@H](C(=O)C1C[C@H](Oc2ccccc2-c2ccc(C(=O)O)cc2)C[C@H]1C(=O)CC1(C(=O)O)CC1)C(C)C)C1CCCCC1` (stereo not given in full): the IC50 was over 200 µM.

On to `CC(=O)N[C@H](C(=O)N[C@H](C(=O)C1C[C@H](Oc2cccc(-c3cccc([N+](=O)[O-])c3)c2)C[C@H]1C(=O)CC1(C(=O)O)CC1)C(C)C)C1CCCCC1` (stereo not given in full), for which the IC50 was 6.31 µM.

For the compound `CC(=O)N[C@H](C(=O)N[C@H](C(=O)C1C[C@H](Oc2cccc3cccnc23)C[C@H]1C(=O)CC1(C(=O)O)CC1)C(C)C)C1CCCCC1` (stereo not given in full), the IC50 is 251 µM.

`CC(=O)N[C@H](C(=O)N[C@H](C(=O)C1C[C@H](Oc2ccnc3cc(C(F)(F)F)ccc23)C[C@H]1C(=O)CC1(C(=O)O)CC1)C(C)C)C1CCCCC1` (stereo not given in full): the IC50 is 6.31 µM.

For the compound `CC(=O)N[C@H](C(=O)N[C@H](C(=O)C1C[C@H](Oc2ccncc2)C[C@H]1C(=O)CC1(C(=O)O)CC1)C(C)C)C1CCCCC1` (stereo not given in full), the IC50 was 158 µM.

Turning to `CC(=O)N[C@H](C(=O)N[C@H](C(=O)C1C[C@H](Sc2nc3ccccc3s2)C[C@H]1C(=O)CC1(C(=O)O)CC1)C(C)C)C1CCCCC1` (stereo not given in full), the IC50 was 20 µM.

For `CC(=O)N[C@H](C(=O)N[C@H](C(=O)C1C[C@H](Oc2cccc(Br)c2)C[C@H]1C(=O)CC1(C(=O)O)CC1)C(C)C)C1CCCCC1` (stereo not given in full), the IC50 was 50.1 µM.

In the case of `CC(=O)N[C@H](C(=O)N[C@H](C(=O)C1C[C@H](Oc2ccc(I)cc2)C[C@H]1C(=O)CC1(C(=O)O)CC1)C(C)C)C1CCCCC1` (stereo not given in full), the IC50 is 10 µM.

For the compound `COc1ccc2c(O[C@H]3CC(C(=O)[C@@H](NC(=O)[C@@H](NC(C)=O)C4CCCCC4)C(C)C)[C@H](C(=O)CC4(C(=O)O)CC4)C3)ccnc2c1` (stereo not given in full), the IC50 was 0.794 µM.

`CC(=O)N[C@H](C(=O)N[C@H](C(=O)C1C[C@H](Oc2cccc(N3CCOCC3)c2)C[C@H]1C(=O)CC1(C(=O)O)CC1)C(C)C)C1CCCCC1` (stereo not given in full): the IC50 was 31.6 µM.

As to `CC(=O)Nc1cccc(-c2cccc(O[C@H]3CC(C(=O)[C@@H](NC(=O)[C@@H](NC(C)=O)C4CCCCC4)C(C)C)[C@H](C(=O)CC4(C(=O)O)CC4)C3)c2)c1` (stereo not given in full), the IC50 was 6.31 µM.

`CC(=O)N[C@H](C(=O)N[C@H](C(=O)C1C[C@H](Oc2ccccc2-c2ccccc2)C[C@H]1C(=O)CC1(C(=O)O)CC1)C(C)C)C1CCCCC1` (stereo not given in full): the IC50 was over 200 µM.

As to `COc1ccc(-c2ccc(O[C@H]3CC(C(=O)[C@@H](NC(=O)[C@@H](NC(C)=O)C4CCCCC4)C(C)C)[C@H](C(=O)CC4(C(=O)O)CC4)C3)cc2)cc1` (stereo not given in full), the IC50 is 31.6 µM.

`CC(=O)N[C@H](C(=O)N[C@H](C(=O)C1C[C@H](Oc2ccccc2Br)C[C@H]1C(=O)CC1(C(=O)O)CC1)C(C)C)C1CCCCC1` (stereo not given in full): the IC50 is 25.1 µM.

With `CC(=O)N[C@H](C(=O)N[C@H](C(=O)C1C[C@H](Oc2ccc(Br)cc2)C[C@H]1C(=O)CC1(C(=O)O)CC1)C(C)C)C1CCCCC1` (stereo not given in full), the IC50 is 25.1 µM.

Turning to `CC(=O)N[C@H](C(=O)N[C@H](C(=O)C1C[C@H](O)C[C@H]1C(=O)CC1(C(=O)O)CC1)C(C)C)C1CCCCC1` (stereo not given in full), the IC50 is over 1000 µM.

For the compound `CC(=O)N[C@H](C(=O)N[C@H](C(=O)C1C[C@H](Oc2ccc(F)cc2)C[C@H]1C(=O)CC1(C(=O)O)CC1)C(C)C)C1CCCCC1` (stereo not given in full), the IC50 is 100 µM.

Turning to `CC(=O)N[C@H](C(=O)N[C@H](C(=O)C1C[C@H](Sc2ccc(Br)cc2)C[C@H]1C(=O)CC1(C(=O)O)CC1)C(C)C)C1CCCCC1` (stereo not given in full), the IC50 was 39.8 µM.

Take `CC(=O)N[C@H](C(=O)N[C@H](C(=O)C1C[C@H](Oc2cccc(-c3ccccc3)c2)C[C@H]1C(=O)CC1(C(=O)O)CC1)C(C)C)C1CCCCC1` (stereo not given in full): the IC50 was 6.31 µM.

Regarding `CC(=O)N[C@H](C(=O)N[C@H](C(=O)C1C[C@H](Oc2ccnc3ccccc23)C[C@H]1C(=O)CC1(C(=O)O)CC1)C(C)C)C1CCCCC1` (stereo not given in full), the IC50 is 5.01 µM.

Turning to `CC(=O)N[C@H](C(=O)N[C@H](C(=O)C1C[C@H](Oc2cccnc2)C[C@H]1C(=O)CC1(C(=O)O)CC1)C(C)C)C1CCCCC1` (stereo not given in full), the IC50 was 200 µM.

For `COc1ccc(-c2ccccc2O[C@H]2CC(C(=O)[C@@H](NC(=O)[C@@H](NC(C)=O)C3CCCCC3)C(C)C)[C@H](C(=O)CC3(C(=O)O)CC3)C2)cc1` (stereo not given in full), the IC50 was over 200 µM.

Consider `CC(=O)N[C@H](C(=O)N[C@H](C(=O)C1C[C@H](Oc2ccc(Cl)c3cccnc23)C[C@H]1C(=O)CC1(C(=O)O)CC1)C(C)C)C1CCCCC1` (stereo not given in full), for which the IC50 is 100 µM.

Turning to `CC(=O)N[C@H](C(=O)N[C@H](C(=O)C1C[C@H](Oc2nc3ccccc3s2)C[C@H]1C(=O)CC1(C(=O)O)CC1)C(C)C)C1CCCCC1` (stereo not given in full), the IC50 is 20 µM.

`CC(=O)N[C@H](C(=O)N[C@H](C(=O)C1C[C@H](Sc2ccnc3cc(C(F)(F)F)ccc23)C[C@H]1C(=O)CC1(C(=O)O)CC1)C(C)C)C1CCCCC1` (stereo not given in full): the IC50 is 10 µM.

As for `CC(=O)N[C@H](C(=O)N[C@H](C(=O)C1C[C@H](Oc2cccnc2-c2ccsc2)C[C@H]1C(=O)CC1(C(=O)O)CC1)C(C)C)C1CCCCC1` (stereo not given in full), the IC50 is over 200 µM.
